“Also recorded” adds a separate entry of the source. Read-outs that look alike come from different tables or passages of the source.
What was measured:
[1] = cited from earlier work
N-CAM 180 [2] = test: Incubation of human occipital cortex membrane and cytosolic fractions with protease inhibitors, N-CAM immunoblot; assay type: biochemical
Source text: Fresh or frozen human brain cortex is dissected free of pia mater layer and any obvious blood vessels on the surface of the cortex. Pulverize the cortex in a sufficient quantity of liquid Nitrogen to a friable state with mortar and pestle, and accurately weigh out replicate samples of pulverized brain sample while keeping all vessels frozen in dry ice. Place the quantity of protease inhibitor or neuraminidase inhibitor in a PBS buffer of final pH 7.4 and maintain buffer on ice. Add the varying concentrations and combinations of protease inhibitors and/or neuraminidase inhibitors to separate pulverized brain in tubes in a final volume to yield a 20% weight of brain tissue/buffer volume. Allow the tubes to adjust to room temperature, and incubate at standard room temperature conditions for varying time points. The end-point of the assay is accomplished by addition of a 2× denaturing reducing sample buffer such as commercially available and previously published, and heat 3 min at 95 degrees C. Proceed to standard SDS-PAGE and immunoblot conditions to determine the breakdown products of parent molecule N-CAM. Use appropriate control incubations for temperature breakdown and buffer breakdown without protease inhibitors and/or neuraminidase inhibitors. The results can be quantitatively assessed by densitometry of immunoblots as previously published which yields a linear response within a loading range of proteins (˜1-100 μg of protein) depending on gel capacity used and concentrations of antibody and detection substrates which are empirically determined with standard methods. […]
Membrane and cytosolic fractions from human occipital cortex were incubated in the presence of protease inhibitors (10 μM final concentration) for varying lengths of time (typically 2, 4, 8, 16, 32, and 48 hrs at room temperature). An aliquot was analyzed by gel electrophoresis and immunoblotted with N-CAM 3732 antibody. […] The supernatant was labeled “membrane extract.” Protein content of the “cytosolic” and “membrane extract” sample was measured by the micro bicinchoninic acid method (Pierce, Ill.).

[3] = cited from earlier work; remark: listed apart in the source
N-CAM 180 [4] = test: Neuraminidase treatment of cytosolic and membrane brain extracts, N-CAM immunoblot; assay type: biochemical, human; conditions: 1.25 U/ml diluted enzyme, 18 hrs at 37° C., FIG. 7A
Protocol: Membrane “extracts” and “cytosolic” tissue extracts of human occipital cortex were prepared as described^8 with slight modifications^9. Frozen pulverized occipital cortex ˜50 g was suspended in 1000 ml of cold 0.05M Tris buffered saline (TBS, pH 7.4) with protease inhibitors: antipain (4 μg/ml), pepstatin A (2 μg/ml), aprotinin (2 μg/ml), leupeptin (2 μg/ml), and phenyl methyl sulfonyl fluoride (0.1 μg/ml). The solution was homogenized (Tissumizer; Tekmar, Cincinnati Ohio) for 5×10 sec pulses in a 4° C. ice bath and 30 sec cooling interval between pulses. The homogenate was centrifuged for 30 min at 42,000×g at 4° C. The clear supernatant with visible lipid removed was the “cytosolic” fraction. The pellet was resuspended and washed with cold TBS-protease inhibitor cocktail and re-centrifuged at 42,000×g for 30 min at 4° C. […] The supernatant was labeled “membrane extract.” Protein content of the “cytosolic” and “membrane” sample was measured by the micro bicinchoninic acid method (Pierce, Ill.).
Neuraminidase treatment of cytosolic and membrane brain extracts was accomplished by using neuraminidase enzyme from Vibrio cholerae (˜2.49 Units/ml, Fluka) in pH 5.5, 0.15M NaCl, 4 mM CaCl2 that was diluted with 50 mM sodium acetate, 4 mM CaCl2 and 0.2 mM EDTA, (pH 5.0; Buffer A) to 1.25 U/ml. […] Samples were analyzed by immunoblot for N-CAM with antibody 3732. […]

For `CC(C)CN(C[C@@H](O)[C@H](Cc1ccccc1)NC(=O)O[C@H]1CCOC1)S(=O)(=O)c1ccc(N)cc1` [Amprenavir], the “effect of a high-fat meal on absorption of the drug” value ([1]; high-fat meal) is listed as “decrease the absorption”, the “severe or life-threatening rash” value ([1]; of recipients) is listed as 1% and the “severe or life-threatening rash” value ([1]; of those who develop a rash) is listed as 4%. For the same molecule, the “severe and life-threatening skin reactions, including Stevens-Johnson syndrome” value ([1]; patients treated) was 1%.

With `CC(=O)N[C@@H](CC(C)C)C(=O)N[C@@H](CC(C)C)C(=O)N[C@H](C=O)CCCNC(=N)N` [leupeptin, Acetyl-leucyl-leucyl-arginal] the “activity in prevention of the breakdown of N-CAM 180 and subsequent release/accumulation of cN-CAM” value (N-CAM 180 [2]; 10 μM final concentration, compared with the other protease inhibitors assayed individually) was “most activity; also recorded: most effective”, the “inhibition of the increase in cN-CAM” value (N-CAM 180 [2]; 10 μM, room temperature, over the course of 48 hr, FIG. 8B and C) was “completely inhibited” and the “potency compared to the protease inhibitor cocktail” value (N-CAM 180 [2]; assayed in human brain) was “most potent”.

In the case of Aprotinin, the tolerability in humans ([3]; clinical trials) is given as “generally well tolerated” and the hypersensitivity reactions ([3]; patients receiving aprotinin for the first time) is given as under 0.1 to 0.6%.

For “neuraminidase: neuraminidase enzyme from Vibrio cholerae (Fluka)”, the “effect on N-CAM 180 in membrane extracts” value (N-CAM 180 [4]) was “removal of higher MW N-CAM 180”.
